Assay results as given in article PMC8781960, “Structural Basis of 2-Phenylamino-4-phenoxyquinoline Derivatives as Potent HIV-1 Non-Nucleoside Reverse Transcriptase Inhibitors” (Molecules, 2022).
Marks after values point to notes of the source that are not given here.

How the values were obtained:
HIV-1 RT = target: T1, HIV-1 RT (Human immunodeficiency virus type 1 group M subtype B, UniProt P03366); test: HIV-1 RT inhibition assay (Roche RT kit, colorimetric ELISA); format: biochemical; settings: for inhibition at 1 µM: read-out: Inhibitory activities (%) against HIV-1 RT
T1 construct: The reaction mixture consisted of template/primer complex, 2′-deoxy-nucleotide-5′-triphosphates (dNTPs), and RT enzyme in lysis buffer; purchased Roche Applied Science, Mannheim, Germany
Text: The inhibition assay of HIV-1 RT was accomplished using the template/primer hybrid poly(A) × oligo(dT)15, digoxigenin (DIG)- and biotin-labeled nucleotides, an antibody to DIG that was conjugated to peroxidase (anti-DIG-POD), and the peroxidase substrate ABTS. The quantities of DIG- and biotin-labeled dUTP incorporated into DNA represent t HIV-1 RT activity. The HIV-RT inhibition assay was implemented using an RT assay kit (Roche Applied Science, Mannheim, Germany), and the procedures for assaying RT inhibition were performed as described in the kit protocol. […] The reaction mixture consisted of template/primer complex, 2′-deoxy-nucleotide-5′-triphosphates (dNTPs), and RT enzyme in lysis buffer with or without an inhibitor. […] The biotin-labeled dNTPs that were incorporated in the template bound to streptavidin because of the presence of RT. Unbound dNTPs were washed using a wash buffer, and anti-DIG-POD was added to the MTP. The DIG-labeled dNTPs incorporated in the template bound to the anti-DIG-POD antibody. Unbound anti-DIG-POD was also washed elaborately five times using a wash buffer. Finally, the peroxide substrate (ABST) was added to the MTP. A colored reaction product emerged during the cleavage of the substrate catalyzed by […]. The absorbance of the sample was measured at the optical density (OD) at 490 nm using the MTP (enzyme-linked immunosorbent assay [ELISA]) reader. The percentage inhibitory activities of the RT inhibitors were calculated by comparing with that of the sample without an inhibitor. The resulting color intensity was directly proportional to the RT activity. Percentage inhibitory values were calculated using the following formula: Inhibition (%) = [1–(OD value with RT and inhibitor−OD value without RT and inhibitors)/(OD value without inhibitors with RT−OD value without RT and inhibitors)] × 100.

[1] = test system: MOLT-3 (acute lymphoblastic leukemia); test: In vitro cytotoxicity (XTT); settings: for IC50: Homo sapiens, MOLT-3, 48 h, read-out: IC50 MOLT-3
Experimental: (§1) Background control wells contained the same volume as the complete culture medium. […] Samples at various concentrations were added to the microplate and incubated for another 48 h. Cell viability was determined by 3(4,5-dimethylthiazol-2-yl)-2-5-diphenyl tetrazolium bromide (MTT) assay (Sig-ma-Aldrich). The reagent was dissolved in phosphate-buffered saline at 5 mg/mL and filtered to sterilize and remove the small amount of insoluble residue present in some batches of MTT. […] Subsequently, dimethyl sulfoxide (100 µL; Merck, Germany) was added to dissolve the resulting formazan by sonication. The plates were read on a microplate reader (Molecular Devices, CA, USA) using a test wavelength of 550 nm and a reference wavelength of 650 nm. XTT assay for suspension cells was used for MOLT-3 cells.

[2] = test system: HuCCA-1 (cholangiocarcinoma); test: In vitro cytotoxicity (MTT); settings: for IC50: Homo sapiens, HuCC-A1, 48 h, read-out: IC50 HuCCA-1
Experimental: as §1

HepG2 (hepatocarcinoma) = test: In vitro cytotoxicity (MTT); settings: for IC50: Homo sapiens, HepG2, 48 h, read-out: IC50 HepG2
Experimental: as §1

[3] = test system: T47-D (hormone-dependent breast cancer); test: In vitro cytotoxicity (MTT); settings: for IC50: Homo sapiens, T47D, read-out: IC50 T47-D
Experimental: as §1

S102 (Thai liver cancer) = test: In vitro cytotoxicity (MTT); settings: for IC50: Homo sapiens, read-out: IC50 S102
Experimental: as §1

A549 (lung carcinoma) = test: In vitro cytotoxicity (MTT); settings: for IC50: Homo sapiens, A549, 48 h, read-out: IC50 A549
Experimental: as §1

[4] = test system: HeLA (cervical carcinoma); test: In vitro cytotoxicity (MTT); settings: for IC50: Homo sapiens, HeLa, read-out: IC50 HeLA
Experimental: as §1

HL-60 (promyeloblast) = test: In vitro cytotoxicity (MTT); settings: for IC50: Homo sapiens, HL-60, 48 h, read-out: IC50 HL-60
Experimental: as §1

[5] = test system: MDA-MB-231 (hormone-independent breast cancer); test: In vitro cytotoxicity (MTT); settings: for IC50: Homo sapiens, MDA-MB-231, 48 h, read-out: IC50 MDA-MB-231
Experimental: as §1

[6] = test system: H69AR (lung cancer, multidrug resistant); test: In vitro cytotoxicity (MTT); format: cell-based, human; settings: for IC50: Homo sapiens, H69AR, mean ± standard error
Experimental: Background control wells contained the same volume as the complete culture medium. […] The reagent was dissolved in phosphate-buffered saline at 5 mg/mL and filtered to sterilize and remove the small amount of insoluble residue present in some batches of MTT. […] Subsequently, dimethyl sulfoxide (100 µL; Merck, Germany) was added to dissolve the resulting formazan by sonication. The plates were read on a microplate reader (Molecular Devices, CA, USA) using a test wavelength of 550 nm and a reference wavelength of 650 nm.

[7] = test system: MRC-5 (normal embryonic lung cell); test: In vitro cytotoxicity (MTT), normal cell line; settings: for IC50: Homo sapiens, MRC5, 48 h, read-out: IC50 MRC-5
Experimental: as §1

[8] = at 50 µg/mL, inactive (IC50 ≥ 50 µg/mL)
[9] = normal cell line, at 50 µg/mL, inactive (IC50 ≥ 50 µg/mL)

SMILES | inhibition at 1 µM (HIV-1 RT) [%] | %C percentage cytotoxicity A549 (A549 (lung carcinoma); [8]) | %C percentage cytotoxicity MRC-5 [7, 9] | IC50 [1] [µM] | IC50 [2] [µM] | IC50 (HepG2 (hepatocarcinoma)) [µM] | IC50 ([3]; 48 h) [µM] | IC50 (S102 (Thai liver cancer); 48 h) [µM] | IC50 (A549 (lung carcinoma)) [µM] | IC50 ([4]; 48 h) [µM] | IC50 (HL-60 (promyeloblast)) [µM] | IC50 [5] [µM] | IC50 ([6]; 48 h) [µM] | IC50 [7] [µM] | other results
Cc1cc(/C=C/C#N)cc(C)c1Oc1cc(Nc2ccc(C#N)cn2)nc2ccccc12 [Compound 10b-trans, 4-(4′-(2″-(E, Z)-cyanovinyl)-2′,6′-dimethyl-phenoxy)-2-(5″-cyanopyridin-2″ylamino)-aminoquinoline] | 32.4 ± 3.5 | %C = 1.0 ^c | %C = 0.0 ^c | – | – | – | – | – | – | – | – | – | – | – | %C percentage cytotoxicity MOLT-3 [1, 8]: %C = 2.0 ^c; %C percentage cytotoxicity HuCCA-1 [2, 8]: %C = 0.0 ^c; %C percentage cytotoxicity HepG2 (HepG2 (hepatocarcinoma); [8]): %C = 1.0 ^c; %C percentage cytotoxicity T47-D [3, 8]: %C = 0.0 ^c; %C percentage cytotoxicity S102 (S102 (Thai liver cancer); [8]): %C = 3.1 ^c; %C percentage cytotoxicity HeLA [4, 8]: %C = 10.0 ^c; %C percentage cytotoxicity HL-60 (HL-60 (promyeloblast); [8]): %C = 31.0 ^c; %C percentage cytotoxicity MDA-MB-231 [5, 8]: %C = 17.0 ^c; %C percentage cytotoxicity H69AR ([6]; human, 48 h, 50 µg/mL): %C = 0.0 ^c
COc1cccc2c1C(=O)c1c(O)c3c(c(O)c1C2=O)C[C@@](O)(C(=O)CO)C[C@@H]3O[C@H]1C[C@H](N)[C@H](O)[C@H](C)O1 [Doxorubicin, reference compound] | – | – | – | 0.02 | 0.9 | 0.6 | 1.2 | 2.2 | 0.6 | 0.4 | 0.1 | 2.5 ± 0.1 | 34.3 ± 0.1 | 3.1 ± 0.5 | –
O=C1Nc2ccc(Cl)cc2[C@@](C#CC2CC2)(C(F)(F)F)O1 [EFV, efavirenz, reference compound] | – | – | – | 24.6 ± 1.2 | 59.6 ± 2.4 | 86.6 ± 3.9 | 59.2 ± 0.8 | 93.5 ± 4.7 | 60.2 ± 1.8 | 46.2 ± 1.3 | 33.7 ± 1.1 | 77.7 ± 5.6 | 105 ± 3.4 | 95.6 ± 6 | –
COc1cc([C@@H]2c3cc4c(cc3[C@@H](O[C@@H]3O[C@@H]5CO[C@@H](C)O[C@H]5[C@H](O)[C@H]3O)[C@H]3COC(=O)[C@H]23)OCO4)cc(OC)c1O [Etoposide, etoposide, reference compound] | – | – | – | 0.03 | – | 49.9 ± 1.1 | – | – | – | – | 0.8 ± 0.1 | – | – | – | –
Cc1ccnc2c1NC(=O)c1cccnc1N2C1CC1 [NVP, nevirapine, reference compound] | 53.4 ± 2.7 | – | – | – | – | – | – | – | – | – | – | – | – | – | %C percentage cytotoxicity MOLT-3 ([1]; human, 48 h, 50 µg/mL): %C = 29.0 ^c; %C percentage cytotoxicity HuCCA-1 ([2]; human, 48 h, 50 µg/mL): %C = 11.0 ^c; %C percentage cytotoxicity HepG2 (HepG2 (hepatocarcinoma); human, 48 h, 50 µg/mL): %C = 15.4 ^c; %C percentage cytotoxicity T47-D ([3]; human, 48 h, 50 µg/mL): %C = 14.0 ^c; %C percentage cytotoxicity S102 (S102 (Thai liver cancer); human, 48 h, 50 µg/mL): %C = 3.0 ^c; %C percentage cytotoxicity A549 (A549 (lung carcinoma); human, 48 h, 50 µg/mL): %C = 18.0 ^c; %C percentage cytotoxicity HeLA ([4]; human, 48 h, 50 µg/mL): %C = 34.0 ^c; %C percentage cytotoxicity HL-60 (HL-60 (promyeloblast); human, 48 h, 50 µg/mL): %C = 3.0 ^c; %C percentage cytotoxicity MDA-MB-231 ([5]; human, 48 h, 50 µg/mL): %C = 8.9 ^c; %C percentage cytotoxicity H69AR [6, 8]: %C = 8.0 ^c; %C percentage cytotoxicity MRC-5 ([7]; human, 48 h, 50 µg/mL): %C = 1.0 ^c
Cc1cc(/C=C/C#N)cc(C)c1Nc1ccnc(Nc2ccc(C#N)cc2)n1 [RPV, rilpivirine, reference compound] | 97.1 ± 0.9 | %C = 42.0 ^c | %C = 14.4 ^c | 4.3 ± 0.5 | 61.3 ± 1.7 | 87.4 ± 0.1 | 15 ± 1.3 | 22.5 ± 1.2 | – | 11.3 ± 1.2 | 11.5 ± 0.8 | 25.3 ± 2.9 | 57.1 ± 2 | – | IC50 (HIV-1 RT): 0.06 µM; cytotoxicity toward normal embryonic lung (MRC-5) cells, in words [7]: very low cytotoxicity
